The source of these data is paper PMC9788509, “Arginine Homopeptide of 11 Residues as a Model of Cell-Penetrating Peptides in the Interaction with Bacterial Membranes” (Membranes, 2022).

Several values for one entry are separate records, joined by “and”; a condition that tells them apart may be missing. Equal entries are not always repeated. No end group written: not given here.

In data set [1] the test system is Escherichia coli (ML35). Format: cell-based. The following applies: E. coli ML35; 1 × 10^7 CFU/mL; 1% TSB, 10 mM Hepes; 10, 20 and 30 μM peptide, 1 h at 37 °C; serial dilution, 18 h at 37 °C in complete TSB; turbidity; duplicate. On the procedure: (§1) The strains used, Staphylococcus aureus (ATCC 25923) and Escherichia coli (ML35), were obtained from the Public Health Institute of Chile (ISP).
(§2) To determine the antibacterial activity of the peptides, a microplate dilution test was performed. The necessary calculations were completed with a bacterial concentration of 1 × 10^7 CFU/mL and the cells were exposed to 50 µL of Tryptic soy broth (TSB) with 1%, 10 mM of Hepes buffer and 10, 20 and 30 μM of peptide for 1 h at 37 °C. Finally, a serial dilution was performed and incubated for 18 h at 37 °C in complete TSB, and the minimum bactericidal concentration (MCB) was determined depending on the turbidity of the plate. All experiments were completed in duplicate. A synthetic peptide of sequence KKWRWWLKALAKK from the venom of the Bothrops asper snake was used as a positive control for growth inhibition.

The test system of data set [2] is Staphylococcus aureus (ATCC 25923). It is filed as cell-based. The following applies: S. aureus ATCC 25923; 1 × 10^7 CFU/mL; 1% TSB, 10 mM Hepes; 10, 20 and 30 μM peptide, 1 h at 37 °C; serial dilution, 18 h at 37 °C in complete TSB; turbidity; duplicate. On the procedure: as §1, §2

On to `C[C@H](N)C(=O)N[C@@H](CCCNC(=N)N)C(=O)N[C@@H](CCCNC(=N)N)C(=O)N[C@@H](CCCNC(=N)N)C(=O)N[C@@H](CCCNC(=N)N)C(=O)N[C@@H](CCCNC(=N)N)C(=O)N[C@@H](CCCNC(=N)N)C(=O)N[C@@H](CCCNC(=N)N)C(=O)N[C@@H](CCCNC(=N)N)C(=O)N[C@@H](CCCNC(=N)N)C(=O)N[C@@H](CCCNC(=N)N)C(N)=O` [A1], for which the “Minimum Bactericidal Concentration” value in data set [1] is greater than 30 µM.
Take `C[C@H](NC(=O)[C@H](CCCNC(=N)N)NC(=O)[C@H](CCCNC(=N)N)NC(=O)[C@H](CCCNC(=N)N)NC(=O)[C@H](CCCNC(=N)N)NC(=O)[C@H](CCCNC(=N)N)NC(=O)[C@H](CCCNC(=N)N)NC(=O)[C@H](CCCNC(=N)N)NC(=O)[C@H](CCCNC(=N)N)NC(=O)[C@H](CCCNC(=N)N)NC(=O)[C@@H](N)CCCNC(=N)N)C(N)=O` [A11]: the Percentage of polyproline II, Equation (2) is 49% (2×) and 45% and 50%. Moreover, the “Minimum Bactericidal Concentration” value in data set [1] was 20 µM. Besides, in data set [2], the “Minimum Bactericidal Concentration” value amounted to 8 µM.
Turning to `CC(C)C[C@H](N)C(=O)N[C@@H](CCCNC(=N)N)C(=O)N[C@@H](CCCNC(=N)N)C(=O)N[C@@H](CCCNC(=N)N)C(=O)N[C@@H](CCCNC(=N)N)C(=O)N[C@@H](CCCNC(=N)N)C(=O)N[C@@H](CCCNC(=N)N)C(=O)N[C@@H](CCCNC(=N)N)C(=O)N[C@@H](CCCNC(=N)N)C(=O)N[C@@H](CCCNC(=N)N)C(=O)N[C@@H](CCCNC(=N)N)C(N)=O` [L1], the “Minimum Bactericidal Concentration” value was 13 µM in data set [1] and 9 µM in data set [2].
In the case of `CC(C)C[C@H](NC(=O)[C@H](CCCNC(=N)N)NC(=O)[C@H](CCCNC(=N)N)NC(=O)[C@H](CCCNC(=N)N)NC(=O)[C@H](CCCNC(=N)N)NC(=O)[C@H](CCCNC(=N)N)NC(=O)[C@H](CCCNC(=N)N)NC(=O)[C@H](CCCNC(=N)N)NC(=O)[C@H](CCCNC(=N)N)NC(=O)[C@H](CCCNC(=N)N)NC(=O)[C@@H](N)CCCNC(=N)N)C(N)=O` [L11], the “Minimum Bactericidal Concentration” value in data set [1] was 30 µM.
Still for that read-out and setting: for `N=C(N)NCCC[C@H](NC(=O)[C@H](CCCNC(=N)N)NC(=O)[C@H](CCCNC(=N)N)NC(=O)[C@H](CCCNC(=N)N)NC(=O)[C@H](CCCNC(=N)N)NC(=O)[C@H](CCCNC(=N)N)NC(=O)[C@H](CCCNC(=N)N)NC(=O)[C@H](CCCNC(=N)N)NC(=O)[C@H](CCCNC(=N)N)NC(=O)[C@H](CCCNC(=N)N)NC(=O)[C@@H]1CCCN1)C(N)=O` [P1] the value was 18 µM.
In the case of `N=C(N)NCCC[C@H](NC(=O)[C@H](CCCNC(=N)N)NC(=O)[C@H](CCCNC(=N)N)NC(=O)[C@H](CCCNC(=N)N)NC(=O)[C@H](CCCNC(=N)N)NC(=O)[C@@H](N)CCCNC(=N)N)C(=O)N[C@@H](CCCNC(=N)N)C(=O)N[C@@H](CCCNC(=N)N)C(=O)N[C@@H](CCCNC(=N)N)C(=O)N[C@@H](CCCNC(=N)N)C(=O)N1CCC[C@H]1C(N)=O` [P11], the “Minimum Bactericidal Concentration” value in data set [1] amounted to 30 µM; in data set [2] it was 18 µM.
Turning to `N=C(N)NCCC[C@H](NC(=O)[C@H](CCCNC(=N)N)NC(=O)[C@H](CCCNC(=N)N)NC(=O)[C@H](CCCNC(=N)N)NC(=O)[C@H](CCCNC(=N)N)NC(=O)[C@H](CCCNC(=N)N)NC(=O)[C@H](CCCNC(=N)N)NC(=O)[C@H](CCCNC(=N)N)NC(=O)[C@H](CCCNC(=N)N)NC(=O)[C@H](CCCNC(=N)N)NC(=O)[C@@H](N)CCCNC(=N)N)C(N)=O` [R11], the “Minimum Bactericidal Concentration” value in data set [1] was 30 µM.
For the molecule `N=C(N)NCCC[C@H](NC(=O)[C@H](CCCNC(=N)N)NC(=O)[C@H](CCCNC(=N)N)NC(=O)[C@H](CCCNC(=N)N)NC(=O)[C@H](CCCNC(=N)N)NC(=O)[C@H](CCCNC(=N)N)NC(=O)[C@H](CCCNC(=N)N)NC(=O)[C@H](CCCNC(=N)N)NC(=O)[C@H](CCCNC(=N)N)NC(=O)[C@H](CCCNC(=N)N)NC(=O)[C@@H](N)Cc1c[nH]c2ccccc12)C(N)=O` [W1], the figures for the “Minimum Bactericidal Concentration” value in data set [1] and in data set [2] were 30 µM and greater than 30 µM, respectively.
The corresponding values for `N=C(N)NCCC[C@H](NC(=O)[C@H](CCCNC(=N)N)NC(=O)[C@H](CCCNC(=N)N)NC(=O)[C@H](CCCNC(=N)N)NC(=O)[C@H](CCCNC(=N)N)NC(=O)[C@H](CCCNC(=N)N)NC(=O)[C@H](CCCNC(=N)N)NC(=O)[C@H](CCCNC(=N)N)NC(=O)[C@H](CCCNC(=N)N)NC(=O)[C@@H](N)CCCNC(=N)N)C(=O)N[C@@H](Cc1c[nH]c2ccccc12)C(N)=O` [W11] are 20 µM and 10 µM.
For RARRRRRRRRR-NH2 [A2], in data set [1], the “Minimum Bactericidal Concentration” value amounted to 18 µM.
Consider RLRRRRRRRRR-NH2 [L2], for which the “Minimum Bactericidal Concentration” value is 8 µM in data set [1] and 12 µM in data set [2].
As for RPRRRRRRRRR-NH2 [P2], the “Minimum Bactericidal Concentration” value in data set [1] is 30 µM.
For RRARRRRRRRR-NH2 [A3], the “Minimum Bactericidal Concentration” value in data set [1] came to 10 µM.
For RRLRRRRRRRR-NH2 [L3], the “Minimum Bactericidal Concentration” value in data set [1] amounted to 10 µM; in data set [2], 9 µM.
As for RRPRRRRRRRR-NH2 [P3], the “Minimum Bactericidal Concentration” value was 28 µM in data set [1] and 8 µM in data set [2].
As to RRRARRRRRRR-NH2 [A4], the Percentage of polyproline II, Equation (2) was 46% (2×) and 58% and 51%. Further, the “Minimum Bactericidal Concentration” value in data set [1] was determined as 26 µM.
In the case of RRRLRRRRRRR-NH2 [L4], the results for the “Minimum Bactericidal Concentration” value in data set [1] and in data set [2] were 20 µM and 9 µM, respectively.
Turning to RRRPRRRRRRR-NH2 [P4], the Percentage of polyproline II, Equation (2) is 49% (2×) and 29% and 41%. Also, the “Minimum Bactericidal Concentration” value in data set [1] is greater than 30 µM.
Regarding RRRRARRRRRR-NH2 [A5], in data set [1], the “Minimum Bactericidal Concentration” value is 20 µM.
In the case of RRRRLRRRRRR-NH2 [L5], the results for the “Minimum Bactericidal Concentration” value in data set [1] and in data set [2] were 18 µM and 8 µM, respectively.
The corresponding values for RRRRPRRRRRR-NH2 [P5] are 28 µM and 8 µM.
Consider RRRRRARRRRR-NH2 [A6], for which the “Minimum Bactericidal Concentration” value in data set [1] turned out to be 26 µM.
On to RRRRRLRRRRR-NH2 [L6], for which the “Minimum Bactericidal Concentration” value was greater than 30 µM in data set [1] and 28 µM in data set [2].
With RRRRRPRRRRR-NH2 [P6], in data set [1], the “Minimum Bactericidal Concentration” value turned out to be 18 µM.
With RRRRRRARRRR-NH2 [A7], in data set [1], the “Minimum Bactericidal Concentration” value turned out to be 20 µM.
Still for that read-out and setting: with RRRRRRLRRRR-NH2 [L7] the figure was 9 µM.
For RRRRRRPRRRR-NH2 [P7], the figures for the “Minimum Bactericidal Concentration” value in data set [1] and in data set [2] were 10 µM and 7 µM, respectively.
With RRRRRRRARRR-NH2 [A8], the “Minimum Bactericidal Concentration” value in data set [1] is 30 µM.
Regarding RRRRRRRLRRR-NH2 [L8], the Percentage of polyproline II, Equation (2) was 51% and 65% (2×) and 62%. Besides, the “Minimum Bactericidal Concentration” value in data set [1] was determined as 18 µM.
Regarding RRRRRRRPRRR-NH2 [P8], the Percentage of polyproline II, Equation (2) is 49% (2×) and 40% and 50%. Also, the “Minimum Bactericidal Concentration” value in data set [1] amounted to 30 µM. In addition, in data set [2], the “Minimum Bactericidal Concentration” value is 9 µM.
For RRRRRRRRARR-NH2 [A9], in data set [1], the “Minimum Bactericidal Concentration” value was greater than 30 µM.
RRRRRRRRLRR-NH2 [L9]: in data set [1], the “Minimum Bactericidal Concentration” value stood at 8 µM.
RRRRRRRRPRR-NH2 [P9]: the Percentage of polyproline II, Equation (2) is 41% (2×) and 27% and 43%. For the same molecule, in data set [1], the “Minimum Bactericidal Concentration” value turned out to be 20 µM. Besides, the “Minimum Bactericidal Concentration” value in data set [2] is 10 µM.
Regarding RRRRRRRRRAR-NH2 [A10], the “Minimum Bactericidal Concentration” value in data set [1] came out at 10 µM; in data set [2], 6 µM.
As to RRRRRRRRRLR-NH2 [L10], the “Minimum Bactericidal Concentration” value in data set [1] stood at 20 µM.
For the molecule RRRRRRRRRPR-NH2 [P10], the “Minimum Bactericidal Concentration” value in data set [1] and in data set [2] was 30 µM in each case.
With RRRRRRRRRWR-NH2 [W10], the Percentage of polyproline II, Equation (2) is 46% and 68% and 49% (2×). The “Minimum Bactericidal Concentration” value in data set [1] worked out at 20 µM.
As to RRRRRRRRWRR-NH2 [W9], the “Minimum Bactericidal Concentration” value in data set [1] was 20 µM; in data set [2] it was 10 µM.
The corresponding values for RRRRRRRWRRR-NH2 [W8] are 20 µM and 20 µM.
For RRRRRRWRRRR-NH2 [W7] the same measures were 14 µM and 8 µM.
For RRRRRWRRRRR-NH2 [W6] the same measures were 15 µM and 20 µM.
Turning to RRRRWRRRRRR-NH2 [W5], the “Minimum Bactericidal Concentration” value in data set [1] amounted to 20 µM; in data set [2], 10 µM.
The corresponding values for RRRWRRRRRRR-NH2 [W4] are 20 µM and 20 µM.
The corresponding values for RRWRRRRRRRR-NH2 [W3] are greater than 30 µM and 20 µM.
For RWRRRRRRRRR-NH2 [W2], the Percentage of polyproline II, Equation (2) was 56% (2×) and 64% and 47%. Further, the “Minimum Bactericidal Concentration” value in data set [1] is greater than 30 µM. The “Minimum Bactericidal Concentration” value in data set [2] was 30 µM.
